{"source": "patent US20090123488A1", "about": "“Compositions and methods for the treatment and prophylaxis of Alzheimer's disease” (priority 2006, published 2009)", "key": {"[1]": {"tested_on": "amyloid-β", "conditions": "mice, alum adjuvant, five boosts (Agadjanyan et al 2005); cited from earlier work"}, "[2]": {"tested_on": "Aβ40", "sequence (P05067 672-711)": "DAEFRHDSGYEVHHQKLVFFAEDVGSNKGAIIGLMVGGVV", "conditions": "immunized mice (Agadjanyan et al 2005); cited from earlier work"}, "[3]": {"tested_on": "synthetic Aβ40", "experiment": "Effect of booster doses: mouse serums titered on synthetic Aβ40", "format": "in vivo", "conditions": "three mice", "experimental": "After immunizations with the immunogens of Example 1, serums were assayed to determine anti-Aβ peptide titers by conventional ELISA methods. […] After thorough washing with 0.1% triton X 100 buffer, blocking with 1% bovine serum albumin (BSA) and rewashing, serum dilutions were applied and incubated at 22° C. for 1 hour. After incubation, the plates were thoroughly washed with triton-X 100 buffer again and 1/10,000 goat anti-mouse IgG-horseradish peroxidase (HRP) conjugate (or the appropriate reagent for rat or rabbit) was applied. The plates were then incubated for 1 hour at 22° C. then washed thoroughly and developed with ABTS for 45 minutes at room temperature on a shaker table. Absorbance was measured at 405 nm. Control wells containing 1/60000 normal mouse serum were measured; and the reciprocal of the […] dilution of test serums with an OD greater than the mean+8 SDs of controls was taken as the titer.\nIn an experiment to determine the effect of booster dosages, three mice were immunized with experimental immunogen, Pam2C-SSQYIKANSKFIGITELDAEFRHDSGYEVHHQ-amide (SEQ ID NO: 13) in a protocol of a 1 mg intraperitoneal (IP) priming dose at Day 0, followed by a 1 mg IP booster at Week 3, and a 1 mg IP second booster at Week 6. Mice were bled at weeks 5 and 8. The serums are titered on synthetic Aβ40. […]"}}}
{"substance": "Aβ33-MAP: Aβ33 synthesized as a multiple antigenic peptide (Agadjanyan et al 2005)", "values": [{"measurement": "maximal titer", "setting": "[1]", "value": "64,000"}, {"measurement": "T cell response to Aβ40", "setting": "[2]", "value": "demonstrable T cell response"}]}
{"substance": "Pam2C-SSQYIKANSKFIGITELDAEFRHDSGYEVHHQ-amide [Pam2-QYIK-AB1-15]", "values": [{"measurement": "GMT at 5 weeks", "setting": "[3]; 1 mg IP Day 0, boosters Week 3 and Week 6, bled week 5", "value": 3, "unit": "million"}, {"measurement": "GMT at 8 weeks", "setting": "[3]; 1 mg IP Day 0, boosters Week 3 and Week 6, bled week 8", "value": 8, "unit": "million"}]}
